The results in this text go back to ChEMBL document CHEMBL4145577, “Cytotoxic Anthracycline Metabolites from a Recombinant Streptomyces” (J Nat Prod, 2018).

For one assay, the system named is MDA-MB-435. The experiment in a line: Cytotoxicity against human MDA-MB-435 cells after 48 hrs by MTT assay. Format: functional, cell-based. Conditions: MDA-MB-435, 48 h.
For another assay, the system named is NCI-H460. In words: Cytotoxicity against human NCI-H460 cells after 48 hrs by MTT assay. Format: functional, cell-based. As to conditions: NCI-H460, 48 h. On the technique in general: Formazan colour is commonly taken as a measure of viable cells.
For another assay, the system named is MDA-MB-231. In words: Cytotoxicity against human MDA-MB-231 cells after 48 hrs by MTT assay. Format: functional, cell-based. As to conditions: MDA-MB-231, 48 h.
The subject of the next assay is HCT-116. In words: Cytotoxicity against human HCT116 cells after 48 hrs by MTT assay. Format: functional, cell-based. As to conditions: HCT-116, 48 h.
Another assay deals with HepG2. In words: Cytotoxicity against human HepG2 cells after 48 hrs by MTT assay. The assay is classed as functional, cell-based. As to conditions: HepG2, 48 h.
In another assay the test system is MCF-10A. The experiment in a line: Cytotoxicity against human MCF10A cells after 48 hrs by MTT assay. Format: cell-based.

Where only a bound is given, the exact number is not on record here.

The term IC50 denotes the concentration that gives 50% inhibition. Read a high IC50 as weaker potency. As for `CC[C@@]1(O)C[C@H](O)c2c(O)c3c(c(O)c2[C@H]1C(=O)OC)C(=O)c1cccc(O)c1C3=O`, the half-inhibitory concentration (IC50) in the assay with MDA-MB-435 came out at 9.2 µM; in the assay on NCI-H460, 10 µM; in the assay with MDA-MB-231, 13.2 µM; with HCT-116, 9.6 µM; in the assay on HepG2, 13.5 µM; in the assay on MCF-10A, 7.1 µM.
Turning to `CC[C@@]1(O)C[C@H](O[C@H]2CC[C@H](O[C@H]3C[C@H](O)[C@H](O[C@H]4CC[C@H](O)[C@H](C)O4)[C@H](C)O3)[C@H](C)O2)c2c(O)c3c(c(O)c2[C@H]1O)C(=O)c1cccc(O)c1C3=O`, the IC50 in the assay on MDA-MB-435 was determined as 3.1 µM; in the assay with NCI-H460, 1.6 µM; with MDA-MB-231, 24.5 µM; with HCT-116 it was 6.1 µM; with HepG2, 5.7 µM; with MCF-10A, 6.7 µM.
For `CC[C@@]1(O)C[C@H](O[C@H]2C[C@H](O)[C@H](O[C@H]3C[C@H](O)[C@H](O)[C@H](C)O3)[C@H](C)O2)c2c(O)c3c(c(O)c2[C@H]1O)C(=O)c1cccc(O)c1C3=O`, the 50% inhibitory concentration (IC50) turned out to be 0.6 µM in the assay with NCI-H460; 10.2 µM in the assay on MDA-MB-231; 13.2 µM in the assay on HCT-116; 2 µM with HepG2; 2.5 µM in the assay on MCF-10A.
Consider `CC[C@@]1(O)C[C@H](O[C@H]2CC[C@H](O[C@H]3CC[C@H](O[C@H]4CC[C@H](O)[C@H](C)O4)[C@H](C)O3)[C@H](C)O2)c2c(O)c3c(c(O)c2[C@H]1C(=O)OC)C(=O)c1cccc(O)c1C3=O`, for which the IC50 turned out to be 2.7 µM with MDA-MB-435; 10 µM in the assay with NCI-H460; 4.5 µM in the assay with MDA-MB-231; 0.2 µM with HCT-116; 1.7 µM with HepG2; 1.4 µM with MCF-10A.
On to `CC[C@]1(O)Cc2c(O)c3c(c(O)c2[C@@H](O[C@H]2C[C@H](O)[C@H](O[C@H]4C[C@H](O)[C@H](O[C@H]5CC[C@H](O)[C@H](C)O5)[C@H](C)O4)[C@H](C)O2)C1)C(=O)c1c(O)cccc1C3=O`, for which the IC50 with MDA-MB-435 is 6.2 µM; in the assay with NCI-H460 it was 0.9 µM; with MDA-MB-231, greater than 50 µM; with HCT-116 it was 3.1 µM; with HepG2, 11.3 µM; in the assay on MCF-10A, 16.9 µM.
As to `CC[C@@]1(O)C[C@H](O[C@H]2C[C@H](O)[C@H](O[C@H]3C[C@H](O)[C@H](O[C@H]4C[C@H](O)[C@H](O)[C@H](C)O4)[C@H](C)O3)[C@H](C)O2)c2c(O)c3c(c(O)c2[C@H]1O)C(=O)c1cccc(O)c1C3=O`, the IC50 with MDA-MB-435 turned out to be 7 µM; with NCI-H460, 4.8 µM; in the assay with MDA-MB-231, 40.2 µM; in the assay with HCT-116, 9.8 µM; in the assay on HepG2, 8 µM; in the assay on MCF-10A, 3.7 µM.
For `CC[C@@]1(O)C[C@H](O[C@H]2C[C@H](O)[C@H](O[C@H]3C[C@H](O)[C@H](O[C@H]4CCC(=O)[C@H](C)O4)[C@H](C)O3)[C@H](C)O2)c2c(O)c3c(c(O)c2[C@H]1O)C(=O)c1cccc(O)c1C3=O`, the 50% inhibitory concentration (IC50) in the assay on MDA-MB-435 is 5.6 µM; in the assay with NCI-H460 it was 0.38 µM; with MDA-MB-231, 5.4 µM; in the assay on HCT-116 it was 1.4 µM; in the assay with HepG2, 0.9 µM; in the assay on MCF-10A, 2 µM.
Consider `CC[C@@]1(O)C[C@H](O[C@H]2C[C@H](O)[C@H](O[C@H]3C[C@H](O)[C@H](O[C@H]4CC[C@H](O)[C@H](C)O4)[C@H](C)O3)[C@H](C)O2)c2c(O)c3c(c(O)c2[C@H]1O)C(=O)c1cccc(O)c1C3=O`, for which the IC50 with NCI-H460 is 0.7 µM; with MDA-MB-231, 7.4 µM; in the assay with HCT-116, 5 µM; in the assay on HepG2, 1.5 µM; with MCF-10A, 3.4 µM.
Regarding `CC[C@@]1(O)C[C@H](O[C@H]2C[C@H](O)[C@H](O[C@H]3CC[C@H](O[C@H]4CC[C@H](O)[C@H](C)O4)[C@H](C)O3)[C@H](C)O2)c2c(O)c3c(c(O)c2[C@H]1O)C(=O)c1cccc(O)c1C3=O`, the IC50 in the assay with MDA-MB-435 came out at 11.7 µM; in the assay on NCI-H460, 1.3 µM; with MDA-MB-231, 10.4 µM; in the assay on HCT-116 it was 32.8 µM; in the assay with HepG2 it was 5.5 µM; with MCF-10A, 5.2 µM.
For the compound `CC[C@@]1(O)C[C@H](O[C@H]2CC[C@H](O[C@H]3C[C@H](O)[C@H](O[C@H]4CC[C@H](O)[C@H](C)O4)[C@H](C)O3)[C@H](C)O2)c2c(O)c3c(c(O)c2[C@H]1C(=O)OC)C(=O)c1cccc(O)c1C3=O`, the IC50 with MDA-MB-435 turned out to be 1.9 µM; with NCI-H460 it was 5.7 µM; with MDA-MB-231, 9.3 µM; in the assay with HCT-116, 3.6 µM; with HepG2, 6.4 µM; in the assay on MCF-10A, 4.6 µM.
As to `CC[C@@]1(O)C[C@H](O[C@H]2C[C@H](O)[C@H](O[C@H]3CC[C@H](O[C@H]4CC[C@H](OC5CC[C@H](O)[C@H](C)O5)[C@H](C)O4)[C@H](C)O3)[C@H](C)O2)c2c(O)c3c(c(O)c2[C@H]1O)C(=O)c1cccc(O)c1C3=O` (stereo partly drawn), the IC50 in the assay with MDA-MB-435 was determined as 37.9 µM; in the assay on NCI-H460 it was 2.2 µM; in the assay with MDA-MB-231, 10.1 µM; in the assay with HCT-116, 7.2 µM; with HepG2 it was 8.5 µM; in the assay on MCF-10A it was 5.7 µM.
Turning to `CC[C@@]1(O)C[C@H](O[C@H]2C[C@H](O)[C@H](O[C@H]3CC[C@H](O[C@H]4C[C@H](O)[C@H](O)[C@H](C)O4)[C@H](C)O3)[C@H](C)O2)c2c(O)c3c(c(O)c2[C@H]1O)C(=O)c1cccc(O)c1C3=O`, the IC50 in the assay on MDA-MB-435 is 5.9 µM; in the assay on NCI-H460, 2.6 µM; in the assay on MDA-MB-231 it was 19.2 µM; in the assay with HCT-116 it was 5.8 µM; with HepG2, 6.2 µM; in the assay on MCF-10A, 10.5 µM.
Consider `CC[C@]1(O)Cc2c(O)c3c(c(O)c2[C@@H](O[C@H]2C[C@H](O)[C@H](O[C@H]4CC[C@H](O[C@H]5CC[C@H](O)[C@H](C)O5)[C@H](C)O4)[C@H](C)O2)C1)C(=O)c1c(O)cccc1C3=O`, for which the IC50 is 4.2 µM in the assay with MDA-MB-435; 5.4 µM in the assay with NCI-H460; greater than 50 µM with MDA-MB-231; 0.3 µM in the assay on HCT-116; 8.6 µM with HepG2; 2.2 µM in the assay on MCF-10A.
In the case of `CC[C@@]1(O)C[C@H](O[C@H]2CC[C@H](O[C@H]3C[C@H](O)[C@H](O[C@H]4CCC(=O)[C@H](C)O4)[C@H](C)O3)[C@H](C)O2)c2c(O)c3c(c(O)c2[C@H]1O)C(=O)c1cccc(O)c1C3=O`, the IC50 in the assay with MDA-MB-435 amounted to 3.9 µM; with NCI-H460, 2.4 µM; in the assay with MDA-MB-231 it was 23.9 µM; with HCT-116, 5.4 µM; in the assay on HepG2, 9.3 µM; in the assay on MCF-10A it was 10.4 µM.
Take `CC[C@@]1(O)CCc2c(O)c3c(c(O)c2[C@H]1O)C(=O)c1cccc(O)c1C3=O`: the IC50 in the assay with MDA-MB-435 was determined as 5.7 µM; in the assay on NCI-H460, 7.3 µM; in the assay on MDA-MB-231 it was 10.9 µM; in the assay with HCT-116, 6 µM; in the assay with HepG2 it was 13 µM; in the assay with MCF-10A, 11.9 µM.
For the compound `COc1cccc2c1C(=O)c1c(O)c3c(c(O)c1C2=O)C[C@@](O)(C(=O)CO)C[C@@H]3O[C@H]1C[C@H](N)[C@@H](O)[C@H](C)O1` [EPIRUBICIN], the concentration for half-maximal inhibition (IC50) in the assay on MDA-MB-435 stood at 0.7 µM; in the assay on NCI-H460, 0.02 µM; with MDA-MB-231, 0.9 µM; in the assay with HCT-116, 0.4 µM; in the assay on MCF-10A, 0.1 µM.
